Assays:
Format in all cases: functional
Mus musculus [1] = experiment: In vivo antitumor activity as percent tumor response at dose of 5.0 mg/kg, 24 hours post injection of SMT-F tumor in DBA/2 mice at day 1-2
Mus musculus [2] = experiment: In vivo antitumor activity as percent tumor response at dose of 5.0 mg/kg, 3 hours post injection of SMT-F tumor in DBA/2 mice at day 1-2
Mus musculus [3] = experiment: In vivo antitumor activity as percent tumor response at dose of 5.0 mg/kg, 3 hours post injection of SMT-F tumor in DBA/2 mice at day 7
Mus musculus [4] = experiment: In vivo antitumor activity as percent tumor response at dose of 5.0 mg/kg, 3 hours post injection of SMT-F tumor in DBA/2 mice at day 30
Mus musculus [5] = experiment: In vivo antitumor activity as percent tumor response at dose of 5.0 mg/kg, 24 hours post injection of SMT-F tumor in DBA/2 mice at day 30
Mus musculus [6] = experiment: In vivo antitumor activity as percent tumor response at dose of 5.0 mg/kg, 24 hours post injection of SMT-F tumor in DBA/2 mice at day 7
Mus musculus [7] = experiment: In vivo antitumor activity as percent tumor response at dose of 2.5 mg/kg, 3 hours post injection of SMT-F tumor in DBA/2 mice at day 1-2
Mus musculus [8] = experiment: In vivo antitumor activity as percent tumor response at dose of 2.5 mg/kg 3h between injection and light treatment in mice at day 7
Mus musculus [9] = experiment: In vivo antitumor activity as percent tumor response at dose of 2.5 mg/kg, 24 hours post injection of SMT-F tumor in DBA/2 mice at day 1-2
Mus musculus [10] = experiment: In vivo antitumor activity as percent tumor response at dose of 2.5 mg/kg, 3 hours post injection of SMT-F tumor in DBA/2 mice at day 30
Mus musculus [11] = experiment: In vivo antitumor activity as percent tumor response at dose of 2.5 mg/kg, 24 hours post injection of SMT-F tumor in DBA/2 mice at day 7
Mus musculus [12] = experiment: In vivo antitumor activity as percent tumor response at dose of 2.5 mg/kg, 24 hours post injection of SMT-F tumor in DBA/2 mice at day 30
Mus musculus [13] = experiment: In vivo antitumor activity as percent tumor response at dose of 0.3 mg/kg, 3 hours post injection of SMT-F tumor in DBA/2 mice at day 30
Mus musculus [14] = experiment: In vivo antitumor activity as percent tumor response at dose of 0.3 mg/kg, 3 hours post injection of SMT-F tumor in DBA/2 mice at day 1-2
Mus musculus [15] = experiment: In vivo antitumor activity as percent tumor response at dose of 0.3 mg/kg, 3 hours post injection of SMT-F tumor in DBA/2 mice at day 7
Mus musculus [16] = experiment: In vivo antitumor activity as percent tumor response at dose of 0.3 mg/kg, 24 hours post injection of SMT-F tumor in DBA/2 mice at day 7
Mus musculus [17] = experiment: In vivo antitumor activity as percent tumor response at dose of 1.0 mg/kg, 24 hours post injection of SMT-F tumor in DBA/2 mice at day 30
Mus musculus [18] = experiment: In vivo antitumor activity as percent tumor response at dose of 0.3 mg/kg, 24 hours post injection of SMT-F tumor in DBA/2 mice at day 1-2
Mus musculus [19] = experiment: In vivo antitumor activity as percent tumor response at dose of 1.0 mg/kg, 24 hours post injection of SMT-F tumor in DBA/2 mice at day 7
Mus musculus [20] = experiment: In vivo antitumor activity as percent tumor response at dose of 1.0 mg/kg, 24 hours post injection of SMT-F tumor in DBA/2 mice at day 1-2
Mus musculus [21] = experiment: In vivo antitumor activity as percent tumor response at dose of 0.3 mg/kg, 24 hours post injection of SMT-F tumor in DBA/2 mice at day 30
Mus musculus [22] = experiment: In vivo antitumor activity as percent tumor response at dose of 0.25 mg/kg, 24 hours post injection of SMT-F tumor in DBA/2 mice at day 30
Mus musculus [23] = experiment: In vivo antitumor activity as percent tumor response at dose of 0.25 mg/kg, 24 hours post injection of SMT-F tumor in DBA/2 mice at day 7
Mus musculus [24] = experiment: In vivo antitumor activity as percent tumor response at dose of 0.25 mg/kg, 24 hours post injection of SMT-F tumor in DBA/2 mice at day 1-2

Row | Compound | Response (Mus musculus [1]) [%] | Response (Mus musculus [5]) [%] | Response (Mus musculus [6]) [%] | Response (Mus musculus [13]) [%] | Response (Mus musculus [14]) [%] | Response (Mus musculus [15]) [%] | Response (Mus musculus [16]) [%] | Response (Mus musculus [18]) [%] | Response (Mus musculus [21]) [%] | other results
1 | C=Cc1c(C)c2cc3nc(c4c5nc(cc6[nH]c(cc1[nH]2)c(C)c6CC)C(C)=C5C(=S)C4)[C@@H](CCC(=O)OC)[C@@H]3C | 0 | 0 | 0 |  |  |  |  |  |  | Response (Mus musculus [2]): 100%; Response (Mus musculus [3]): 100%; Response (Mus musculus [4]): 80%
2 | CCc1c(C)c2cc3[nH]c(cc4nc(c5c6nc(cc1[nH]2)C(C)=C6C(=O)C5)[C@@H](CCC(=O)OC)[C@@H]4C)c(C)c3C=O |  |  |  |  |  |  |  |  |  | Response (Mus musculus [7]): 67%; Response (Mus musculus [8]): 67%; Response (Mus musculus [9]): 0%; Response (Mus musculus [10]): 0%; Response (Mus musculus [11]): 0%; Response (Mus musculus [12]): 0%
3 | CCCCCCOC(C)c1c(C)c2cc3nc(c4c5nc(cc6[nH]c(cc1[nH]2)[C@@](C)(O)[C@]6(O)CC)C(C)=C5C(=O)C4)[C@@H](CCC(=O)OC)[C@@H]3C (stereo partly drawn) |  |  |  | 0 | 0 | 0 |  |  |  | 
4 | CCCCCCOC(C)C1=C(C)c2cc3nc(c4c5[nH]c(cc6[nH]c(cc1n2)c(C)c6CC)c(C)c5C(=O)[C@@H]4C(=O)OC)[C@@H](CCC(=O)OC)[C@@H]3C (stereo partly drawn) |  |  |  | 20 | 100 | 100 | 90 | 100 | 0 | Response (Mus musculus [17]): 50%; Response (Mus musculus [19]): 100%; Response (Mus musculus [20]): 100%
5 | CCCCCCOC(C)C1=C(C)c2cc3nc(c4c5[nH]c(cc6[nH]c(cc1n2)c(C)c6CC)c(C)c5C(=O)C4)[C@@H](CCC(=O)OC)[C@@H]3C (stereo partly drawn) |  |  |  |  |  |  | 100 | 100 | 50 | Response (Mus musculus [22]): 35%; Response (Mus musculus [23]): 85%; Response (Mus musculus [24]): 100%
6 | CCCCCCOC(C)C1=C(C)c2cc3nc(c(CC(=O)OC)c4[nH]c(cc5[nH]c(cc1n2)c(C)c5CC)c(C)c4C(=O)OC)[C@@H](CCC(=O)OC)[C@@H]3C (stereo partly drawn) |  |  |  |  |  |  | 0 | 100 | 0 | Response (Mus musculus [17]): 0%; Response (Mus musculus [19]): 75%; Response (Mus musculus [20]): 100%
7 | CCc1c(C)c2cc3[nH]c(cc4nc(c(CC(=O)OC)c5nc(cc1[nH]2)C(C)=C5C(=O)OC)[C@@H](CCC(=O)OC)[C@@H]4C)c(C)c3C=O | 0 | 0 | 0 |  |  |  |  |  |  | 
8 | CCc1c(C)c2cc3[nH]c(cc4nc(c5c6nc(cc1[nH]2)C(C)=C6C(=O)[C@@H]5C(=O)OC)[C@@H](CCC(=O)OC)[C@@H]4C)c(C)c3C=O | 80 | 0 | 60 |  |  |  |  |  |  | 
9 | CCc1c(C)c2cc3nc(c4c5nc(cc6[nH]c(cc1[nH]2)[C@@](C)(O)[C@]6(O)CC)C(C)=C5C(=O)C4)[C@@H](CCC(=O)OC)[C@@H]3C |  |  |  | 0 | 0 | 0 |  |  |  | 
10 | CCCCCCOCC1=C(C)c2cc3nc(c4c5[nH]c(cc6[nH]c(cc1n2)c(C)c6CC)c(C)c5C(=O)C4)[C@@H](CCC(=O)OC)[C@@H]3C |  |  |  |  |  |  | 33 | 100 | 0 | 
